PMC10584170, “Machine learning-based phenotypic imaging to characterise the targetable biology of Plasmodium falciparum male gametocytes for the development of transmission-blocking antimalarials” (PLOS Pathogens, 2023)
Like-named read-outs stand apart in the source and are kept apart here.

How the values were obtained:
[1] = tested on: P. falciparum male gametocytes; assay: P. falciparum Dual Gamete Formation Assay (PfDGFA), male readout (exflagellation); format: cell-based, Plasmodium falciparum NF54; settings: for Selectivity Ratio M: HepG2 Tox50 versus male IC50; for IC50: PfDGFA, 24 h incubation with gametocytes before induction, exflagellation readout, read-out: Male IC50; for HitlevelM: number of replicates with >50% inhibition in the male readout
Outline: (§1)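 Two sex-specific readouts come from one well: male exflagellation centres recorded by brightfield video right after activation, and female gametes scored by Cy3-anti-Pfs25 fluorescence after 24 h at 28°C.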

[2] = tested on: P. falciparum female gametocytes; assay: P. falciparum Dual Gamete Formation Assay (PfDGFA), female readout (Pfs25-positive female gametes); format: cell-based, Plasmodium falciparum NF54; settings: for Selectivity ratio F: HepG2 Tox50 versus female IC50; for IC50: PfDGFA, 24 h incubation with gametocytes before induction, female gamete readout, read-out: Female IC50; for HitlevelF: number of replicates with >50% inhibition in the female readout
Outline: as §1

HepG2 cells = assay: HepG2 cytotoxicity counter-screen; settings: cytotoxic activity against HepG2 cells
[3] = PfDGFA at 2µM, 24h preincubation with gametocytes, average of replicates
[4] = PfDGFA at 2µM, 24h preincubation with gametocytes, replicate R1
[5] = PfDGFA at 2µM, 24h preincubation with gametocytes, replicate R3
[6] = PfDGFA at 2µM, 24h preincubation with gametocytes, replicate R4
[7] = Plasmodium falciparum, PfDGFA at 2µM, 24h preincubation with gametocytes, average of replicates, read-out: Average inhibition male (%)
[8] = Plasmodium falciparum, PfDGFA at 2µM, 24h preincubation with gametocytes, replicate R1, read-out: % inhibition male (individual replicates) R1
[9] = Plasmodium falciparum, PfDGFA at 2µM, 24h preincubation with gametocytes, replicate R2, read-out: % inhibition male (individual replicates) R2
[10] = Plasmodium falciparum, PfDGFA at 2µM, 24h preincubation with gametocytes, replicate R3, read-out: % inhibition male (individual replicates) R3
[11] = Plasmodium falciparum, PfDGFA at 2µM, 24h preincubation with gametocytes, replicate R4, read-out: % inhibition male (individual replicates) R4
[12] = Plasmodium falciparum, PfDGFA at 2µM, 24h preincubation with gametocytes, average of replicates, read-out: Average inhibition female (%)
[13] = Plasmodium falciparum, PfDGFA at 2µM, 24h preincubation with gametocytes, replicate R1, read-out: % inhibition female (individual replicates) R1
[14] = Plasmodium falciparum, PfDGFA at 2µM, 24h preincubation with gametocytes, replicate R2, read-out: % inhibition female (individual replicates) R2
[15] = Plasmodium falciparum, PfDGFA at 2µM, 24h preincubation with gametocytes, replicate R3, read-out: % inhibition female (individual replicates) R3
[16] = Plasmodium falciparum, PfDGFA at 2µM, 24h preincubation with gametocytes, replicate R4, read-out: % inhibition female (individual replicates) R4
[17] = 2µM, 24h preincubation with gametocytes prior to induction of gametogenesis, average of replicates
[18] = 2µM, 24h preincubation with gametocytes prior to induction of gametogenesis, replicate R1
[19] = 2µM, 24h preincubation with gametocytes prior to induction of gametogenesis, replicate R3
[20] = 2µM, 24h preincubation with gametocytes prior to induction of gametogenesis, replicate R4
[21] = 2µM, 24h preincubation with gametocytes, average of replicates
[22] = 2µM, 24h preincubation with gametocytes, replicate R1
[23] = 2µM, 24h preincubation with gametocytes, replicate R3
[24] = 2µM, 24h preincubation with gametocytes, replicate R4

Structure (SMILES) | Selectivity Ratio M [1] | Average inhibition male (%) [1, 3] | % inhibition male (individual replicates) R1 [1, 4] | % inhibition male (individual replicates) R3 [1, 5] | % inhibition male (individual replicates) R4 [1, 6] | IC50 [1] | HitlevelM ([1]; 2µM) | Selectivity ratio F [2] | Average inhibition female (%) [2, 3] | % inhibition female (individual replicates) R1 [2, 4] | % inhibition female (individual replicates) R3 [2, 5] | % inhibition female (individual replicates) R4 [2, 6] | IC50 [2] | HitlevelF ([2]; 2µM) | Tox50 (HepG2 cells) | IC50 ([1]; Plasmodium falciparum) | IC50 ([2]; Plasmodium falciparum) | also measured
COc1cc2nc(NCc3cccc(CNC(=O)c4ccc(-c5ccc(C(C)=O)cc5)cc4)c3)nc(N)c2cc1OC.O=C(O)C(F)(F)F [TCMDC-138177] | 3.88 | 65.2% | 54.7% | 22.4% | 95.6% | 1630 nM | 3 | 3.13 | 43.1% | 31.2% | 17.8% | 57.2% | 2020 nM | 2 | 6.34 µM | – | – | –
COc1ccc2nc3cc(Cl)ccc3c(NCCCCNc3c4ccc(Cl)cc4nc4ccc(OC)cc34)c2c1 [TCMDC-138218] | 6.15 | – | – | – | – | – | 4 | 6.16 | – | – | – | – | – | 4 | 2.31 µM | 380 nM | 380 nM | inhibition at 2 µM [1, 7]: 73.2%; inhibition at 2 µM [1, 8]: 64.4%; inhibition at 2 µM [1, 9]: 64.9%; inhibition at 2 µM [1, 10]: 77.2%; inhibition at 2 µM [1, 11]: 86.3%; inhibition at 2 µM [2, 12]: 88.1%; inhibition at 2 µM [2, 13]: 84.2%; inhibition at 2 µM [2, 14]: 86.6%; inhibition at 2 µM [2, 15]: 91.5%; inhibition at 2 µM [2, 16]: 89.9%
COc1ccc(N2CCN(CCCCNCc3ccc(NC(=O)c4cc(Cl)cc(Cl)c4)cc3)CC2)c(OC)c1 [TCMDC-138226] | 3.29 | 83.1% | 85.0% | 71.2% | 96.9% | 1640 nM | 4 | 1.04 | 28.5% | 20.8% | 39.5% | 12.9% | 5220 nM | 0 | 5.4 µM | – | – | –
CN(C)CCNCc1ccc(-c2ccc3c(Nc4ccc(Cl)cc4F)ccnc3c2)o1 [TCMDC-138391] | 7.38 | – | – | – | – | 1750 nM | – | 2.31 | – | – | – | – | 5590 nM | – | 12.91 µM | – | – | Average inhibition male (%) [1, 17]: 55.2%; % inhibition male (individual replicates) R1 [1, 18]: 62.6%; % inhibition male (individual replicates) R3 [1, 19]: 53.9%; % inhibition male (individual replicates) R4 [1, 20]: 79.6%; HitlevelM ([1]; 2µM, 24h preincubation): 3; Average inhibition female (%) [2, 17]: 37.2%; % inhibition female (individual replicates) R1 [2, 18]: 39.6%; % inhibition female (individual replicates) R3 [2, 19]: 32.6%; % inhibition female (individual replicates) R4 [2, 20]: 31.7%; HitlevelF ([2]; 2µM, 24h preincubation): 0
CN(C)CCN(C)Cc1ccc(-c2ccc3c(Nc4ccc(Oc5ccccc5)cc4)ccnc3c2)o1 [TCMDC-138400] | 3.65 | – | – | – | – | 940 nM | – | 0.72 | – | – | – | – | 4780 nM | – | 3.45 µM | – | – | Average inhibition male (%) [1, 21]: 97.6%; % inhibition male (individual replicates) R1 [1, 22]: 97.3%; % inhibition male (individual replicates) R3 [1, 23]: 97.8%; % inhibition male (individual replicates) R4 [1, 24]: 99.6%; Average inhibition female (%) [2, 21]: 65.3%; % inhibition female (individual replicates) R1 [2, 22]: 57.3%; % inhibition female (individual replicates) R3 [2, 23]: 63.8%; % inhibition female (individual replicates) R4 [2, 24]: 69.5%
CC(C)S(=O)(=O)N1CCN(Cc2ccc3c(c2)nc(NC(=O)c2ccsc2)n3C[C@H](O)c2ccccc2)CC1 [TCMDC-138569] | 20.83 | – | – | – | – | – | 4 | 0.85 | – | – | – | – | – | 0 | 8.48 µM | 410 nM | > 10000 nM | inhibition at 2 µM [1, 7]: 67.3%; inhibition at 2 µM [1, 8]: 77.8%; inhibition at 2 µM [1, 9]: 73.7%; inhibition at 2 µM [1, 10]: 62.3%; inhibition at 2 µM [1, 11]: 55.6%; inhibition at 2 µM [2, 12]: 9.7%; inhibition at 2 µM [2, 13]: 10.7%; inhibition at 2 µM [2, 14]: -0.7%; inhibition at 2 µM [2, 15]: -17.5%; inhibition at 2 µM [2, 16]: 46.4%
CN1CCN(CCCNCc2ccc(Nc3nccc(Nc4ccc(Oc5ccccc5)cc4)n3)cc2)CC1 [TCMDC-138621] | 4.45 | 76.4% | 65.3% | 52.8% | 96.9% | 1770 nM | 4 | 1.14 | 16.4% | 12.8% | 8.2% | 31.4% | 6880 nM | 0 | 7.88 µM | – | – | –
Cl.O=C1Nc2ccc3ncccc3c2/C1=C/Nc1ccc(N2CCN(CCO)CC2)cc1 [TCMDC-138634] | 229.28 | – | – | – | – | – | – | 3.39 | – | – | – | – | – | – | 33.87 µM | 150 nM | > 10000 nM | inhibition at 2 µM ([1]; Plasmodium falciparum, 2µM, 24h preincubation with gametocytes, average of replicates, read-out: Average inhibition male (%)): 92.8%; inhibition at 2 µM ([1]; Plasmodium falciparum, 2µM, 24h preincubation with gametocytes, replicate R1, read-out: % inhibition male (individual replicates) R1): 89.8%; inhibition at 2 µM ([1]; Plasmodium falciparum, 2µM, 24h preincubation with gametocytes, replicate R2, read-out: % inhibition male (individual replicates) R2): 91.5%; inhibition at 2 µM ([1]; Plasmodium falciparum, 2µM, 24h preincubation with gametocytes, replicate R3, read-out: % inhibition male (individual replicates) R3): 89.7%; inhibition at 2 µM ([1]; Plasmodium falciparum, 2µM, 24h preincubation with gametocytes, replicate R4, read-out: % inhibition male (individual replicates) R4): 100%; inhibition at 2 µM ([2]; Plasmodium falciparum, 2µM, 24h preincubation with gametocytes, average of replicates, read-out: Average inhibition female (%)): -7.8%; inhibition at 2 µM ([2]; Plasmodium falciparum, 2µM, 24h preincubation with gametocytes, replicate R1, read-out: % inhibition female (individual replicates) R1): -5.3%; inhibition at 2 µM ([2]; Plasmodium falciparum, 2µM, 24h preincubation with gametocytes, replicate R2, read-out: % inhibition female (individual replicates) R2): -7.3%; inhibition at 2 µM ([2]; Plasmodium falciparum, 2µM, 24h preincubation with gametocytes, replicate R3, read-out: % inhibition female (individual replicates) R3): -18.8%; inhibition at 2 µM ([2]; Plasmodium falciparum, 2µM, 24h preincubation with gametocytes, replicate R4, read-out: % inhibition female (individual replicates) R4): 0.25%
